{
  "source": "patent US11795460B2",
  "about": "“Compositions and methods for TTR gene editing and treating ATTR amyloidosis” (Intellia Therapeutics, Inc., priority 2017, dated 2023)",
  "key": {"[1]": {"system": "TTR", "experiment": "TTR editing in primary human hepatocytes transfected with Spy Cas9 protein (RNP) loaded with dgRNAs (Table 8)", "format": "cell-based", "conditions": "dgRNA transfected with Spy Cas9 protein (RNP)", "procedure,_shortened": "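Primary human hepatocytes were lipofected (RNAiMAX) with RNP of Spy Cas9 (10 nM) plus pre-annealed crRNA (10 nM) and trRNA (10 nM) and harvested 24, 48 or 72 h later. Target-site amplicons were sequenced on Illumina MiSeq and aligned to hg38; percent editing = reads with indels or substitutions over total reads.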"}, "[2]": {"system": "TTR", "experiment": "TTR editing in HepG2 cells transfected with Spy Cas9 mRNA and dgRNAs (Table 6)", "format": "cell-based, human", "conditions": "HepG2 cells co-transfected with Spy Cas9 mRNA (SEQ ID NO:2) and dgRNAs", "procedure,_shortened": "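HepG2 cells were transfected sequentially by lipofection with Spy Cas9 mRNA (100 ng), then crRNA plus tracer RNA (25 nM each), and harvested at 24, 48 or 72 h. Editing was measured by amplicon NGS at the TTR target site as the fraction of reads with indels or substitutions.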"}, "[3]": {"system": "off-target genomic sites", "experiment": "Off-target oligo insertion based assay in HEK293_Cas9 cells, dgRNAs and sgRNAs (Tables 23, 24)", "format": "cell-based, human", "conditions": "Table 23; TTR dgRNAs in HekCas9 cells, oligo insertion based assay", "procedure,_shortened": "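In HEK293 cells constitutively expressing Spy Cas9, crRNA (15 nM) plus trRNA (15 nM), or modified sgRNAs, were lipofected with donor oligo (10 nM). Genomic DNA was collected at 24 h, and oligo-insertion libraries were sequenced on MiSeq/HiSeq to map potential off-target cleavage sites.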"}},
  "data": [
    {"sequence": "UGAAUCCAAGUGUCCUCUGA (tested as dual guide RNA, chemistry not given here) [CR005303]", "values": [
      {"measurement": "Avg % Deletion", "setting": "[1]", "result": 0.39, "unit": "%"},
      {"measurement": "Avg % Edit", "setting": "[1]", "result": 36.45, "unit": "%"},
      {"measurement": "Avg % Insert", "setting": "[1]", "result": 36.06, "unit": "%"},
      {"measurement": "Avg % Deletion", "setting": "[2]", "result": 1.08, "unit": "%"},
      {"measurement": "Avg % Edit", "setting": "[2]", "result": 21.63, "unit": "%"},
      {"measurement": "Avg % Insert", "setting": "[2]", "result": 20.55, "unit": "%"},
      {"measurement": "# Sites (off-target integration sites detected)", "setting": "[3]", "result": 1}
    ]},
    {"sequence": "UGGACUGGUAUUUGUGUCUG (tested as dual guide RNA, chemistry not given here) [CR003340]", "values": [
      {"measurement": "Avg % Deletion", "setting": "[1]", "result": 4.50, "unit": "%"},
      {"measurement": "Avg % Edit", "setting": "[1]", "result": 10.44, "unit": "%"},
      {"measurement": "Avg % Insert", "setting": "[1]", "result": 5.94, "unit": "%"},
      {"measurement": "Avg % Deletion", "setting": "[2]", "result": 31.65, "unit": "%"},
      {"measurement": "Avg % Edit", "setting": "[2]", "result": 37.76, "unit": "%"},
      {"measurement": "Avg % Insert", "setting": "[2]", "result": 6.12, "unit": "%"},
      {"measurement": "# Sites (off-target integration sites detected)", "setting": "[3]", "result": 0}
    ]},
    {"sequence": "UGUAGAAGGGAUAUACAAAG (tested as dual guide RNA, chemistry not given here) [CR003365]", "values": [
      {"measurement": "Avg % Deletion", "setting": "[1]", "result": 7.54, "unit": "%"},
      {"measurement": "Avg % Edit", "setting": "[1]", "result": 47.78, "unit": "%"},
      {"measurement": "Avg % Insert", "setting": "[1]", "result": 40.24, "unit": "%"},
      {"measurement": "Avg % Deletion", "setting": "[2]", "result": 11.11, "unit": "%"},
      {"measurement": "Avg % Edit", "setting": "[2]", "result": 46.88, "unit": "%"},
      {"measurement": "Avg % Insert", "setting": "[2]", "result": 35.77, "unit": "%"},
      {"measurement": "# Sites (off-target integration sites detected)", "setting": "[3]", "result": 3}
    ]},
    {"sequence": "UUCUUUGGCAACUUACCCAG (tested as dual guide RNA, chemistry not given here) [CR003357]", "values": [
      {"measurement": "Avg % Deletion", "setting": "[1]", "result": 0.90, "unit": "%"},
      {"measurement": "Avg % Edit", "setting": "[1]", "result": 49.35, "unit": "%"},
      {"measurement": "Avg % Insert", "setting": "[1]", "result": 48.45, "unit": "%"},
      {"measurement": "Avg % Deletion", "setting": "[2]", "result": 3.46, "unit": "%"},
      {"measurement": "Avg % Edit", "setting": "[2]", "result": 45.83, "unit": "%"},
      {"measurement": "Avg % Insert", "setting": "[2]", "result": 42.37, "unit": "%"},
      {"measurement": "# Sites (off-target integration sites detected)", "setting": "[3]", "result": 3}
    ]},
    {"sequence": "UUUGACCAUCAGAGGACACU (tested as dual guide RNA, chemistry not given here) [CR003344]", "values": [
      {"measurement": "Avg % Deletion", "setting": "[1]", "result": 4.48, "unit": "%"},
      {"measurement": "Avg % Edit", "setting": "[1]", "result": 35.45, "unit": "%"},
      {"measurement": "Avg % Insert", "setting": "[1]", "result": 30.97, "unit": "%"},
      {"measurement": "Avg % Deletion", "setting": "[2]", "result": 3.62, "unit": "%"},
      {"measurement": "Avg % Edit", "setting": "[2]", "result": 33.43, "unit": "%"},
      {"measurement": "Avg % Insert", "setting": "[2]", "result": 29.81, "unit": "%"},
      {"measurement": "# Sites (off-target integration sites detected)", "setting": "[3]", "result": 0}
    ]}
  ]
}
